# Measurements as given in PMC7168327, “Designed Antimicrobial Peptides for Topical Treatment of Antibiotic Resistant Acne Vulgaris” (Antibiotics, 2020).
# Values joined by “and” are separate entries in the source; they are usually repeats but may differ in a detail not shown here. Equal entries are not always repeated. Where two headings read alike, the source gives them in different places. Bridge positions count the residues as written; N and C are the ends. Square brackets hold non-standard residues; d marks the D form. Peptide text beside a SMILES is read from it. Orn = NCCC[C@H](N)C(=O)O
# Key:
# [1] = tested on: ten C. acnes clinical isolates and two C. acnes ATCC reference strains; type: cell-based, Cutibacterium acnes; conditions: for in vitro anti-bacterial activity against the C. acnes bacterial strains (in words): 0.5–32 μg/mL concentration range evaluated
# Description: (§1) The ten antibiotic resistant C. acnes clinical isolates were acquired from BEI resources with the two reference strains obtained from American Type Culture Collection (ATCC, Manassas, VA, USA). C. acnes is a relatively slow-growing, typically aerotolerant anaerobic so all in vitro C. acnes experiments were performed under anaerobic conditions.
# (§2) Single colonies were inoculated in Reinforced Clostridium Medium (RCM) broth supplemented with sodium thioglycolate and incubated at 37 °C, with shaking at 200 rpm, for 2 or 3 days to reach logarithmic growth (OD600nm = 1.0). Each C. acnes (1 × 10^6 CFU per mL) was incubated with dAMP or clindamycin at two-fold serial dilutions (0.5–32 μg per mL) in RCM on a 96-well microplate for 48 h. Three replicas were included for each test article concentration. Bacterial growth was measured by optical density at 600 nm to determine the MIC for each dAMP applied.
# [2] = tested on: C. acnes HL043PA2; type: cell-based, Cutibacterium acnes
# Description: as §1, §2
# [3] = tested on: C. acnes HL043PA1; type: cell-based, Cutibacterium acnes
# Description: as §1, §2
# [4] = tested on: C. acnes HL007PA1; type: cell-based, Cutibacterium acnes
# Description: as §1, §2
# [5] = tested on: C. acnes HL082PA2; type: cell-based, Cutibacterium acnes
# Description: as §1, §2
# [6] = tested on: C. acnes ATCC6919; type: cell-based, Cutibacterium acnes
# Description: as §1, §2
# [7] = tested on: C. acnes HL045PA1; type: cell-based, Cutibacterium acnes
# Description: as §1, §2
# [8] = tested on: C. acnes HL072PA1; type: cell-based, Cutibacterium acnes
# Description: as §1, §2
# [9] = tested on: C. acnes HL053PA1; type: cell-based, Cutibacterium acnes
# Description: as §1, §2
# [10] = tested on: C. acnes HL056PA1; type: cell-based, Cutibacterium acnes
# Description: as §1, §2
# [11] = tested on: C. acnes ATCC11827; type: cell-based, Cutibacterium acnes
# Description: as §1, §2
# [12] = tested on: C. acnes HL038PA1; type: cell-based, Cutibacterium acnes
# Description: as §1, §2
# [13] = tested on: C. acnes HL013PA1; type: cell-based, Cutibacterium acnes
# Description: as §1, §2
# [14] = tested on: C. acnes HL043PA2 compared to human keratinocytes; type: cell-based
# Description: In evaluating the clinical utility of each of the candidate dAMPs for C. acnes treatment, the Therapeutic Index was determined. The Therapeutic Index is defined as the ratio of concentration at which the dAMP is active against the prokaryotic C. acnes pathogen without inducing cytotoxic damage to the surrounding mammalian cells. The EC10 and EC50 doses, defined as the concentrations required to kill 10% and 50% respectively of human keratinocytes following 8 h incubation with each of the Riptide dAMPs, are tabulated and graphed in Table 2 and Figure 3, respectively. The larger the Therapeutic Index, the greater the specificity of the dAMP for destroying C. acnes cells.
# as §2
# (§3) Noninvasive and real-time monitoring of mammalian cytotoxicity to assess the potential skin toxicity of the dAMPs was evaluated using bioluminescent human immortalized keratinocytes (HaCaT, AddexBio, San Diego, CA, USA). The bioluminescent variant of HaCaT was constructed by transfection with a luciferase gene (RediFect Red-Fluc-Puromycin, Cat# CL596002). Keratinocytes (1 × 10^4 cells, 100 μL) were plated in 96-well black-walled plates. The candidate dAMPs were 2-fold serially diluted from 1024 µg/mL in growth medium supplemented with 150 µg/mL D-luciferin. Each concentration was performed in triplicate, with the final volume being 200 μL. Imaging was performed at select times (0, 15, and 30 min and 1, 3, 5, and 8 h) after the addition of the dAMP, and compared to concurrently run vehicle-control, using an IVIS Lumina imaging system (Caliper Life Sciences, Inc., Hopkinton, MA, USA). For imaging, the 96-well plate was positioned on the stage (12.5-cm field of view), with an open emission filter, binning of 4, and f-stop 1 and a 1-min exposure time. Data analysis was performed using the Living Image software program (version 4.3, Caliper Life Sciences, Inc.). The dAMP concentrations required to kill 10% and 50% of keratinocytes were determined using GraphPad Prism 7 (GraphPad Software, San Diego, CA, USA).
# [15] = tested on: bioluminescent human immortalized keratinocytes (HaCaT); assay: Mammalian cytotoxicity, bioluminescent human keratinocytes; type: cell-based; conditions: for EC50, concentration required to kill 50% of human keratinocytes: 8 h
# Description: as §3
"MIC ([2]; HL043PA2, 48 h)","MIC ([3]; HL043PA1, 48 h)","MIC ([4]; HL007PA1, 48 h)","MIC ([5]; HL082PA2, 48 h)","MIC ([6]; ATCC6919, 48 h)","MIC ([7]; HL045PA1, 48 h)","MIC ([8]; HL072PA1, 48 h)","MIC ([9]; HL053PA1, 48 h)","MIC ([10]; HL056PA1, 48 h)","MIC ([11]; ATCC11827, 48 h)","MIC ([12]; HL038PA1, 48 h)","MIC ([13]; HL013PA1, 48 h)",SMILES,in vitro anti-bacterial activity against the C. acnes bacterial strains (in words) [1],Therapeutic Index (EC50 / MIC) ([14]; 8 h),"EC50, concentration required to kill 50% of human keratinocytes [15]",further results
8 µg/mL,4 µg/mL,4 µg/mL,8 µg/mL,4 µg/mL,4 µg/mL,8 µg/mL,4 µg/mL,4 µg/mL,8 µg/mL,8 µg/mL,2 to 4 µg/mL,CC[C@H](C)[C@H](NC(=O)[C@H](CCCN)NC(=O)[C@H](C)NC(=O)[C@H](CCCN)NC(=O)[C@H](CC(C)C)NC(=O)[C@H](CCCN)NC(=O)[C@@H](NC(=O)[C@H](CCCN)NC(=O)[C@@H](NC(=O)[C@H](CCCN)NC(=O)[C@H](C)NC(=O)[C@H](CCCN)NC(=O)[C@H](CC(C)C)NC(=O)[C@H](CCCN)NC(=O)[C@@H](N)Cc1ccccc1)[C@@H](C)CC)C(C)C)C(=O)N[C@@H](CCCN)C(=O)N[C@@H](CC(C)C)C(N)=O [RP554] (H-F[Orn]L[Orn]A[Orn]I[Orn]V[Orn]L[Orn]A[Orn]I[Orn]L-NH2),most active,3.88,31 µg/mL,"MIC values against all C. acnes isolates ([1]; ten clinical isolates and two ATCC reference strains, 48 h): 2 to 8 µg/mL; Therapeutic Index (EC10 / MIC) ([14]; 8 h): 2.38"
,,,,,,,,,,,,"CC[C@H](C)[C@@H]1NC(=O)CNC(=O)[C@H](CCCCN)NC(=O)[C@H](Cc2ccc(O)cc2)NC(=O)[C@@H]2CSSC[C@H](NC1=O)C(=O)N[C@@H](Cc1ccccc1)C(=O)N[C@@H](CCCCN)C(=O)N[C@@H](CCCCN)C(=O)N[C@H](C(=O)N[C@@H](CCCCN)C(N)=O)CSSC[C@H](NC(=O)[C@H](Cc1ccccc1)NC(=O)[C@@H](N)CCCNC(=N)N)C(=O)N[C@@H](Cc1c[nH]c3ccccc13)C(=O)N[C@@H](CCCCN)C(=O)N[C@@H](C(C)C)C(=O)N2 [RP557] (H-RFCWKVCYKGICFKKCK-NH2; disulfide 3-16, 7-12)",most active,,,"MIC values against all C. acnes isolates ([1]; span over ten antibiotic resistant isolates and two ATCC reference strains): 2 to 8 µg/mL; MIC ([2]; C. acnes HL043PA2 (multi-drug resistant), RCM broth, anaerobic, 1 × 10^6 CFU per mL, two-fold dilutions 0.5–32 μg/mL, 48 h, OD 600 nm, mean of three replicates): 8 µg/mL; MIC ([3]; C. acnes HL043PA1, RCM broth, anaerobic, 1 × 10^6 CFU per mL, two-fold dilutions 0.5–32 μg/mL, 48 h, OD 600 nm, mean of three replicates): 8 µg/mL; MIC ([4]; C. acnes HL007PA1, RCM broth, anaerobic, 1 × 10^6 CFU per mL, two-fold dilutions 0.5–32 μg/mL, 48 h, OD 600 nm, mean of three replicates): 8 µg/mL; MIC ([5]; C. acnes HL082PA2, RCM broth, anaerobic, 1 × 10^6 CFU per mL, two-fold dilutions 0.5–32 μg/mL, 48 h, OD 600 nm, mean of three replicates): 2 µg/mL; MIC ([6]; C. acnes ATCC6919, RCM broth, anaerobic, 1 × 10^6 CFU per mL, two-fold dilutions 0.5–32 μg/mL, 48 h, OD 600 nm, mean of three replicates): 8 µg/mL; MIC ([7]; C. acnes HL045PA1, RCM broth, anaerobic, 1 × 10^6 CFU per mL, two-fold dilutions 0.5–32 μg/mL, 48 h, OD 600 nm, mean of three replicates): 4 µg/mL; MIC ([8]; C. acnes HL072PA1, RCM broth, anaerobic, 1 × 10^6 CFU per mL, two-fold dilutions 0.5–32 μg/mL, 48 h, OD 600 nm, mean of three replicates): 8 µg/mL; MIC ([9]; C. acnes HL053PA1, RCM broth, anaerobic, 1 × 10^6 CFU per mL, two-fold dilutions 0.5–32 μg/mL, 48 h, OD 600 nm, mean of three replicates): 4 µg/mL; MIC ([10]; C. acnes HL056PA1, RCM broth, anaerobic, 1 × 10^6 CFU per mL, two-fold dilutions 0.5–32 μg/mL, 48 h, OD 600 nm, mean of three replicates): 4 µg/mL; MIC ([11]; C. acnes ATCC11827, RCM broth, anaerobic, 1 × 10^6 CFU per mL, two-fold dilutions 0.5–32 μg/mL, 48 h, OD 600 nm, mean of three replicates): 8 µg/mL; MIC ([12]; C. acnes HL038PA1, RCM broth, anaerobic, 1 × 10^6 CFU per mL, two-fold dilutions 0.5–32 μg/mL, 48 h, OD 600 nm, mean of three replicates): 8 µg/mL; MIC ([13]; C. acnes HL013PA1, RCM broth, anaerobic, 1 × 10^6 CFU per mL, two-fold dilutions 0.5–32 μg/mL, 48 h, OD 600 nm, mean of three replicates): 2 µg/mL; Therapeutic Index (EC10 / MIC) ([14]; keratinocyte EC10 (8 h) versus MIC against HL043PA2 C. acnes): 30.8; Therapeutic Index (EC50 / MIC) ([14]; keratinocyte EC50 (8 h) versus MIC against HL043PA2 C. acnes): 35 and 35.1; viability of human keratinocytes ([15]; 8 h incubation at 256 μg/mL, bioluminescent HaCaT): greater than 80%; EC10, concentration required to kill 10% of human keratinocytes ([15]; bioluminescent HaCaT, 1 × 10^4 cells/well, 8 h incubation, 2-fold dilutions from 1024 µg/mL, triplicate, IVIS imaging, GraphPad Prism 7): 246 µg/mL"
16 µg/mL,16 µg/mL,16 µg/mL,16 µg/mL,8 µg/mL,16 µg/mL,16 µg/mL,16 µg/mL,16 µg/mL,16 µg/mL,16 µg/mL,8 µg/mL,CC[C@H](C)[C@H](NC(=O)[C@H](CCCCN)NC(=O)[C@H](CC(C)C)NC(=O)[C@H](CCCN)NC(=O)[C@H](CC(C)C)NC(=O)[C@H](CCCNC(=N)N)NC(=O)[C@H](C)NC(=O)[C@H](CCCNC(=N)N)NC(=O)[C@@H](NC(=O)[C@H](CCCN)NC(=O)[C@H](Cc1ccccc1)NC(=O)[C@H](CCCNC(=N)N)NC(=O)[C@H](C)NC(=O)[C@H](CCCCN)NC(=O)[C@@H](NC(=O)[C@H](CCCN)NC(=O)[C@@H](N)Cc1ccccc1)[C@@H](C)CC)C(C)C)C(N)=O [RP553] (H-F[Orn]IKARF[Orn]VRARL[Orn]LKI-NH2),modest anti-bacterial activity,16.8,268 µg/mL,
>32 µg/mL,>32 µg/mL,>32 µg/mL,>32 µg/mL,>32 µg/mL,>32 µg/mL,>32 µg/mL,>32 µg/mL,>32 µg/mL,>32 µg/mL,>32 µg/mL,>32 µg/mL,CC[C@H](C)[C@H](NC(=O)[C@H](CCCN)NC(=O)[C@H](CC(C)C)NC(=O)[C@H](CCCNC(=N)N)NC(=O)[C@@H](N)Cc1ccccc1)C(=O)N[C@@H](CCCCN)C(=O)N[C@@H](C)C(=O)N[C@@H](CCCN)C(=O)N[C@@H](CC(C)C)C(=O)N[C@@H](CCCCN)C(=O)N[C@H](C(=O)N[C@@H](CCCN)C(=O)N[C@H](C(=O)N[C@@H](CCCNC(=N)N)C(=O)N[C@@H](Cc1ccccc1)C(=O)N[C@@H](CCCCN)C(=O)N[C@@H](CC(C)C)C(N)=O)[C@@H](C)CC)C(C)C [RP568] (H-FRL[Orn]IKA[Orn]LKV[Orn]IRFKL-NH2),negligible activity,7.16,229 µg/mL,
